According to patent US20140314697A1, “Method for Inhibiting Inflammation and Reducing Melanophilin Expression with Glycine Derivatives And the Composition Thereof” (CORUM INC., priority 2013, published 2014):
Marks after values point to notes of the source that are not given here.

What was measured:
age spot = test: Skin whitening test: age spot photography, Reverse Photo Engineering quantitative analysis; type: in vivo, human; settings: for Age Spot Reduction - Reverse Photo Engineering Data, Max % Improvement / Age Spot Reduction - Reverse Photo Engineering Data, % Difference: 0.2% Ac-Gly-β-Ala sample
Procedure: (§1) In this example, the in-vivo skin test is finished by AMA Laboratories USA. The skin color changes are evaluated with Minolta chromameter color computer system. The Age spot photography is evaluated with Reverse Photo Engineering Quantitative Analysis.
In terms of age spot photography, the participants were 5 women aged 38-49 years old, wherein four of the participants were caucasian, and one was Asian. The participants were tested before (baseline), and after using 14, 28, 56 days with high-resolution digital camera, then Reverse Photo Engineering quantitative analysis to perform the age spot change evaluation.

[1] = tested on: Mlph (melanophilin) protein in B16-F10 cells; test: Reduction of melanophilin expression on translational level (western blot); type: cell-based, Murine; settings: B16-F10 w/FSK; for Mlph protein expression level, Average / Mlph protein expression level, Entry 1 / Mlph protein expression level, Entry 2 / Mlph protein expression level, Entry 3: about 48 hours, Positive Control 100%
Procedure: Murine melanoma cell line B16-F10 (BCRC No. 60031)
Complete Medium (as negative control): DMEM with 10% Fetal Bovine Serum
Testing Medium (as positive control): 20 μM forskolin (FSK) in Complete Medium
a. Rinse the confluent B16-F10 cells with sterile D-PBS then trypsinize all cells and perform cell counting.
b. Seeding 2.5E+05 cells per 6-cm dish.
c. Incubate B16F10 cells at 37° C., 5% CO2 for about 24 hours.
d. Prepared 0.5%/0.25%/0.125% testing material in Testing Medium.
e. Discard the medium and add 3 mL controls and testing material into B16-F10 cells in 6-cm dish.
f. Incubate B16-F10 cells at 37° C., 5% CO2 for about 48 hour.
g. After incubating for about 48 hours, discard the supernatant and wash the B16-F10 cells with sterile D-PBS.
h. Mlph protein expression is measured by western blot. Western blot conditions: • Loading protein amount: 40 μg/well • Protein transfer by Semi-dry Transfer Apparatus • Immunoblot with Primary Ab (1:250 dilution) at 4° C. overnight • Incubate with secondary Ab (1:5000 dilution) at room temperature for 1 hour • Detection was performed with the ECL system • Relative quantification of protein expression was measured by IMAGEJ free software). β-actin was used as the internal control for normalization • Data Analysis: […]

[2] = tested on: skin color (hyper pigmentation); test: Skin whitening test: skin color changes (L* value), Minolta chromameter; type: in vivo, human; settings: for Hyper pigmentation Reduction - Skin Color Data, Max % Improvement / Hyper pigmentation Reduction - Skin Color Data, % Difference: 0.2% Ac-Gly-β-Ala sample; for Hyper pigmentation Reduction - Skin Color Data, % Difference: L* value
Procedure: as §1
In terms of skin color changes, the participants were women aged 25-48 years old, wherein nine of the participants were caucasian, and one was Asian. The participants were tested before (baseline), and after using 14, 28, 56 days with Minolta chromameter color computer system to perform the skin color change evaluation. And the samples used for the skin color change evaluation is 0.2% Ac-Gly-β-Ala.

[3] = tested on: Mouse MIP-2 secretion, RAW264.7; test: Mouse MIP-2 production in Raw264.7 cells (ELISA); type: cell-based; settings: for Mouse MIP-2 Content, Average / Mouse MIP-2 Content, Entry 2 / Mouse MIP-2 Content, Entry 1 / Mouse MIP-2 Content, Entry 3: Raw264.7, LPS & IFN-r, 24 hours, Positive Control 100%; for Mouse MIP-2 Content, Entry 2: passage N + 3; for Mouse MIP-2 Content, Entry 1: passage N + 5; for Mouse MIP-2 Content, Entry 3: passage N + 6
Procedure: Murine macrophage cell line RAW264.7 (BCRC No. 60001)
Complete Medium (as negative control): DMEM medium with 10% Fetal Bovine Serum
Testing Medium (as positive control): 100 ng/mL LPS and 10 ng/mL IFN-r in Complete Medium
a. Rinse the confluent Raw264.7 cells with sterile D-PBS then trypsinize all cells and perform cell counting.
b. Dilute the cell density to 2E+05/mL and seed 0.1 mL cell liquid (equals to 2E+04 cells) each well in 96-well plate.
c. Incubate Raw264.7 cells at 37° C., 5% CO2 for about 24 hours.
d. Prepared 2× dosing solution of testing material in 2× Testing Medium (means w/ 200 ng/mL ? LPS&20 ng/mL ? IFN-r): 0.8%, 0.4%, 0.2%, 0.1% (Final testing material: 0.4%, 0.2%, 0.1%, 0.05%)
e. […] Add 100 μL controls and testing materials in different concentrations into Raw264.7 cells in 96 well plates. Controls/Test materials should be tested at least three wells.
f. Incubate Raw264.7 cells at 37° C., 5% CO2 for about 24 hours.
g. After incubating for about 24 hours, collect the supernatant of controls and testing materials.
h. Determine the IL-6/MIP-2 content of the supernatant by R&D ELISA kit as mentioned previously.

NHEK cells = test: Cell viability on NHEK; type: cell-based, Human; settings: for cell viability on NHEK, Average / cell viability on NHEK, Entry 1 / cell viability on NHEK, Entry 2 / cell viability on NHEK, Entry 3: 40 mJ/cm^2 UVB, Positive Control 100%; for cell viability on NHEK, Entry 1: passage 2 + 2; for cell viability on NHEK, Entry 2 / cell viability on NHEK, Entry 3: passage 2 + 3
Procedure: 4.4. Cell Viability is Tested by Neutral Red Uptake Experience or MTT Assay.

CC(=O)NCC(=O)NCCC(=O)O [Ac-Gly-β-Ala, 3-(2-acetylamino-acetylamino)-propionic acid]
Age Spot Reduction - Reverse Photo Engineering Data, Max % Improvement (age spot; Day 14): −51.67%
Age Spot Reduction - Reverse Photo Engineering Data, % Difference (age spot; Day 14 vs baseline): −41.47%*
Age Spot Reduction - Reverse Photo Engineering Data, Max % Improvement (age spot; Day 28): −80.63%
Age Spot Reduction - Reverse Photo Engineering Data, % Difference (age spot; Day 28 vs baseline): −63.37%
Age Spot Reduction - Reverse Photo Engineering Data, Max % Improvement (age spot; Day 56): −87.40%
Age Spot Reduction - Reverse Photo Engineering Data, % Difference (age spot; Day 56 vs baseline): −73.07%*
quantitative analyzed data for the age spot change evaluation (age spot; sample containing 0.2% Ac-Gly-β-Ala): significantly decreased
Mlph protein expression level, Average ([1]; 0.125%): 71.3%
Mlph protein expression level, Entry 1 ([1]; 0.125%): 66.8%
Mlph protein expression level, Entry 2 ([1]; 0.125%): 65.7%
Mlph protein expression level, Entry 3 ([1]; 0.125%): 81.2%
Mlph protein expression level, Average ([1]; 0.25%): 62.0%
Mlph protein expression level, Entry 1 ([1]; 0.25%): 49.4%
Mlph protein expression level, Entry 2 ([1]; 0.25%): 12.8%
Mlph protein expression level, Entry 3 ([1]; 0.25%): 123.8%
Mlph protein expression level, Average ([1]; 0.5%): 24.3%
Mlph protein expression level, Entry 1 ([1]; 0.5%): 36.5%
Mlph protein expression level, Entry 2 ([1]; 0.5%): 10.6%
Mlph protein expression level, Entry 3 ([1]; 0.5%): 25.8%
effect on Mlph in translational (protein) level [1]: inhibitory effect
Hyper pigmentation Reduction - Skin Color Data, Max % Improvement ([2]; Day 14): 62.84%
Hyper pigmentation Reduction - Skin Color Data, % Difference ([2]; Day 14 vs baseline): 26.90%*
Hyper pigmentation Reduction - Skin Color Data, Max % Improvement ([2]; Day 28): 87.34%
Hyper pigmentation Reduction - Skin Color Data, % Difference ([2]; Day 28 vs baseline): 41.07%*
Hyper pigmentation Reduction - Skin Color Data, Max % Improvement ([2]; Day 56): 87.97%
Hyper pigmentation Reduction - Skin Color Data, % Difference ([2]; Day 56 vs baseline): 41.64%*
L* value of skin ([2]; test sample with 0.2% Ac-Gly-β-Ala): can increase the L* value of skin
MIP-2 production, dose dependence ([3]; 0.05%-0.4%, Raw264.7): inhibited MIP-2 production in dose-dependent manner
Mouse MIP-2 Content, Average ([3]; 0.05%): 78%
Mouse MIP-2 Content, Entry 2 ([3]; 0.05%): 79%
Mouse MIP-2 Content, Entry 1 ([3]; 0.05%): 75%
Mouse MIP-2 Content, Entry 3 ([3]; 0.05%): 81%
Mouse MIP-2 Content, Average ([3]; 0.10%): 65%
Mouse MIP-2 Content, Entry 2 ([3]; 0.10%): 66%
Mouse MIP-2 Content, Entry 1 ([3]; 0.10%): 64%
Mouse MIP-2 Content, Entry 3 ([3]; 0.10%): 65%
Mouse MIP-2 Content, Average ([3]; 0.20%): 48%
Mouse MIP-2 Content, Entry 2 ([3]; 0.20%): 44%
Mouse MIP-2 Content, Entry 1 ([3]; 0.20%): 50%
Mouse MIP-2 Content, Entry 3 ([3]; 0.20%): 48%
Mouse MIP-2 Content, Average ([3]; 0.40%): 31%
Mouse MIP-2 Content, Entry 2 ([3]; 0.40%): 32%
Mouse MIP-2 Content, Entry 1 ([3]; 0.40%): 21%
Mouse MIP-2 Content, Entry 3 ([3]; 0.40%): 38%
cell viability on NHEK, Average (NHEK cells; 0.01%): 80%
cell viability on NHEK, Entry 1 (NHEK cells; 0.01%): 80%
cell viability on NHEK, Entry 2 (NHEK cells; 0.01%): 82%
cell viability on NHEK, Entry 3 (NHEK cells; 0.01%): 76%
cell viability on NHEK, Average (NHEK cells; 0.03%): 84%
cell viability on NHEK, Entry 1 (NHEK cells; 0.03%): 88%
cell viability on NHEK, Entry 2 (NHEK cells; 0.03%): 80%
cell viability on NHEK, Entry 3 (NHEK cells; 0.03%): 83%
cell viability on NHEK, Average (NHEK cells; 0.05%): 93%
cell viability on NHEK, Entry 1 (NHEK cells; 0.05%): 93%
cell viability on NHEK, Entry 2 (NHEK cells; 0.05%): 90%
cell viability on NHEK, Entry 3 (NHEK cells; 0.05%): 95%
cell viability on NHEK, Average (NHEK cells; 0.10%): 108%
cell viability on NHEK, Entry 1 (NHEK cells; 0.10%): 109%
cell viability on NHEK, Entry 2 (NHEK cells; 0.10%): 103%
cell viability on NHEK, Entry 3 (NHEK cells; 0.10%): 110%
cell viability on NHEK, Average (NHEK cells; 0.20%): 109%
cell viability on NHEK, Entry 1 (NHEK cells; 0.20%): 106%
cell viability on NHEK, Entry 2 (NHEK cells; 0.20%): 107%
cell viability on NHEK, Entry 3 (NHEK cells; 0.20%): 113%
cell viability on NHEK, Average (NHEK cells; 0.40%): 93%
cell viability on NHEK, Entry 1 (NHEK cells; 0.40%): 106%
cell viability on NHEK, Entry 2 (NHEK cells; 0.40%): 95%
cell viability on NHEK, Entry 3 (NHEK cells; 0.40%): 79%
Cell viability (NHEK cells; NHEK, all of dosing solution): higher than 80%
